Entries after “also recorded” stand apart in the source; their conditions may differ.
Assays:
H5N1 A/Turkey/582/2006 = type: cell-based, influenza A virus
[1] = tested on: pandemic H1N1 virus (A/California/07/2009); type: cell-based, influenza A virus
H3N2 A/Moscow/10/99 = type: cell-based, influenza A virus
influenza A viruses = test: Selectivity index summary (ratio between CC50 and EC50) on the viruses; type: cell-based, influenza A virus; details: summary over the viruses tested (FIG. 4)
[2] = tested on: H1N1 A/New Caledonia/20/99; type: cell-based, influenza A virus
[3] = tested on: H5N2 A/Finch/England/2051/94; type: cell-based, influenza A virus
in vitro = details: human
[4] = tested on: H7N1 A/Chicken/Italy/2076/99; type: cell-based, influenza A virus

SMILES | inhibition of the infectious cycle of H5N1 virus (H5N1 A/Turkey/582/2006) | antiviral activity on pandemic H1N1 virus [1] | inhibition of the infectious cycle of H3N2 virus (H3N2 A/Moscow/10/99) | inhibitor class by selectivity index (SI = CC50/EC50) (influenza A viruses) | inhibition of the infectious cycle of H1N1 virus [2] | inhibition of the infectious cycle of H5N2 virus [3] | inhibition of the infectious cycle of low-MOI H1N1 virus [2] | CC50 (in vitro) | inhibition of the infectious cycle of low-MOI H7N1 virus [4] | inhibition of the infectious cycle of low-MOI pandemic H1N1 virus [1]
COc1ccc(OC)c(C(O)CNC(=O)CN)c1.Cl (racemic) [midodrine, Acetamide, 2-amino-N-[2-(2,5-dimethoxyphenyl)-2-hydroxyethyl]-monohydrochloride, (±)-] | inhibits the infectious cycle of all the viruses tested | characterized by antiviral activity; also recorded: inhibits the infectious cycle of all the viruses tested | inhibits the infectious cycle of all the viruses tested | moderate (a moderate inhibitor has an SI between 10 and 50) | inhibits the infectious cycle of all the viruses tested | inhibits the infectious cycle of all the viruses tested |  |  |  | 
CCN[C@H]1CN(CCCOC)S(=O)(=O)c2sc(S(N)(=O)=O)cc21 [brinzolamide, (R)-(+)-4-Ethylamino-2-(3-methoxypropyl)-3,4-dihydro-2H-thieno[3,2-e]-1,2-thiazine-6-sulfonamide-1,1-dioxide] |  | do not seem to have an impact | inhibits primarily the infectious cycle |  |  |  | inhibits primarily the infectious cycle | ≥ 666 µM | inhibits primarily the infectious cycle | 
C1COC(NC(C2CC2)C2CC2)=N1 [rilmenidine] |  | do not seem to have an impact | inhibits the infectious cycle |  | inhibits the infectious cycle | inhibits the infectious cycle |  | 1120 µM |  | 
Cc1nccc2c1[nH]c1cc(O)ccc12 [harmol, 1-Methyl-9H-beta-carbolin-7-ol] | inhibits the infectious cycle | characterized by antiviral activity | inhibits the infectious cycle |  |  | inhibits the infectious cycle |  | 95 µM |  | inhibits the infectious cycle

Source: patent publication US9433592B2, “Pharmaceutical or veterinary antiviral compositions” (priority 2009, dated 2016)
